Source: US5179100A, “4,5-dihydropyrazolo[3,4-a]acridines” (Hoechst-Roussel Pharmaceuticals inc., priority 1992, dated 1993)
Counter-ions that a name gives are not always drawn.

These compounds were tested on 2-phenyl-1,4-benzoquinone-induced writhing in mice (assay: 2-phenyl-1,4-benzoquinone-induced writhing test in mice (PQW Activity), analgesia). Conditions: 33 mg/kg, s.c. (reference compound).
Assay type: in vivo
Description: Exptl. […] The tests were conducted at the subcutaneous dose of 20 mg/kg.

| Structure (SMILES) | PQW Activity, % Inhibition |
| --- | --- |
| CC(=O)Oc1ccccc1C(=O)O [Aspirin, reference compound] | 50% |

Same assay, conditions: subcutaneous, 20 mg/kg

| Structure (SMILES) | PQW Activity, % Inhibition |
| --- | --- |
| N#CCn1cc2c(n1)-c1c(nc3ccccc3c1N)CC2 [11-Amino-4,5-dihydro-2H-pyrazolo[3,4-a]acridine-2-acetonitrile] | 47% |
| CCn1cc2c(n1)-c1c(nc3ccccc3c1N)CC2 [11-Amino-4,5-dihydro-2-ethyl-2H-pyrazolo[3,4-a]acridine] | 67% |
| Nc1c2c(nc3ccccc13)CCc1cn(CC(=O)O)nc1-2 [11-Amino-4,5-dihydro-2H-pyrazolo[3,4-a]acridine-2-acetic acid hydrochloride hemihydrate] | 58% |
| Nc1c2c(nc3ccccc13)CCc1cnn(-c3ccccc3)c1-2 [11-Amino-4,5-dihydro-1-phenyl-1H-pyrazolo[3,4-a]acridine] | 48% |
| CN(C)CCn1cc2c(n1)-c1c(nc3ccccc3c1N)CC2 [11-Amino-4,5-dihydro-2-(2-dimethylaminoethyl)-2H-pyrazolo [3,4-a]acridine] | 59% |
| Cn1cc2c(n1)-c1c(nc3ccccc3c1N)CC2 [11-Amino-4,5-dihydro-2-methyl-2H-pyrazolo[3,4-a]acridine] | 54% |
